# How the values were obtained:
# [1] = Surface area of sonidegib drug substance; format: physicochemical
# [2] = Solubility of sonidegib phosphate in various media; format: physicochemical
# Source text: Solubility of Sonidegib Phosphate in Various Media
Compound,surface area [1],"solubility ([2]; acetate buffer, pH 4.5, aqueous buffer)","solubility ([2]; phosphate buffer, pH 6.8, aqueous buffer)","solubility ([2]; phosphate buffer, pH 7.4, aqueous buffer)","solubility ([2]; simulated gastric fluid, 0.01N HCl, pH 2.0)","solubility ([2]; simulated gastric fluid, 0.1N HCl, pH 1.0)",solubility ([2]; water)
"Cc1c(C(=O)Nc2ccc(N3C[C@@H](C)O[C@@H](C)C3)nc2)cccc1-c1ccc(OC(F)(F)F)cc1 [Sonidegib, N-(6-((2R,6S)-2,6-dimethylmorpholino)pyridin-3-yl)-2-methyl-4′-(trifluoromethoxy)-[1,1′-biphenyl]-3-carboxamide]",Sonidegib has a very high surface area (270 m2/g) and a porous structure that leads to poor water solubility.,–,–,–,–,–,–
Cc1c(C(=O)Nc2ccc(N3C[C@@H](C)O[C@@H](C)C3)nc2)cccc1-c1ccc(OC(F)(F)F)cc1 [Sonidegib Phosphate],–,< 0.2 µg/mL,< 0.2 µg/mL,< 0.2 µg/mL,18 µg/mL,4 µg/mL,7 µg/mL

# — patent publication US10426781B2, “Oral formulation and suspension of an oncology drug” (SUN PHARMA GLOBAL FZE, priority 2013, dated 2019)
